# Like-named read-outs stand apart in the source and are kept apart here.
# Target: T1, mouse TMEM16A mutant Y514A (Mus musculus, UniProt Q8BHY3, Y514A)
# T1 construct: expressed in transfected cells; host or cells: HEK293T
# T1 sequence (Q8BHY3 1-960 Y514A): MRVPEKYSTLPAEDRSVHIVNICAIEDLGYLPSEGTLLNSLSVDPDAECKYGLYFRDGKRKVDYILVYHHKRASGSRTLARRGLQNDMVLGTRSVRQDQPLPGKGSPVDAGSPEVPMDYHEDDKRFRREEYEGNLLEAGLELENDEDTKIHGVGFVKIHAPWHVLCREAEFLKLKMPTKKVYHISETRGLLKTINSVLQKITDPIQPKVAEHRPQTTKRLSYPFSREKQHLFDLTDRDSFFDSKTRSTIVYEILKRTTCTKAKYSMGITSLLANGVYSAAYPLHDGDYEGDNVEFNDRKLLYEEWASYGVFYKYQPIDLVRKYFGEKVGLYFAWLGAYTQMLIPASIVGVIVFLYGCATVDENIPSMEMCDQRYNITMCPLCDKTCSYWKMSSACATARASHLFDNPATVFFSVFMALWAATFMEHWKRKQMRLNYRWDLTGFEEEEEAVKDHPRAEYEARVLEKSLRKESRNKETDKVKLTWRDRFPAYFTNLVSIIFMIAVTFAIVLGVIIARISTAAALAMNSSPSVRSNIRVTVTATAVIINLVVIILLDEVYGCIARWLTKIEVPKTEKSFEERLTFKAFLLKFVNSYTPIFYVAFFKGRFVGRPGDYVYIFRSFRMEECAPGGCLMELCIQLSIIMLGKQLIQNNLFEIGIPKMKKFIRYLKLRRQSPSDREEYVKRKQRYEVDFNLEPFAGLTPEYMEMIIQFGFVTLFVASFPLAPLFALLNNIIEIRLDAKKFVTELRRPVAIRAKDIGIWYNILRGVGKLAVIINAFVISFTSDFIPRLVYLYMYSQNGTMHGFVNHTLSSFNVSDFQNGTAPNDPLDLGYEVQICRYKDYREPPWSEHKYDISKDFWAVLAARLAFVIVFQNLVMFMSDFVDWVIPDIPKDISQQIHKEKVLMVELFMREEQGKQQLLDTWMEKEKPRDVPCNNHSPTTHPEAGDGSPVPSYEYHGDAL
# Assay: Inside-out patch recording of 1PBC block, mutant Y514A
# Assay type: cell-based
# Settings: for remaining activity at 10 µM: 1PBC 10; for remaining activity at 10 µM / remaining activity at 30 µM / remaining activity at 100 µM: read-out: fraction of unblocked current; for remaining activity at 30 µM: 1PBC 30; for remaining activity at 100 µM: 1PBC 100
# Method: HEK293T cells (ATCC CRL-1573) were maintained in Dulbecco’s modified Eagle’s medium (DMEM; Sigma-Aldrich) supplemented with 10 U ml^−1 penicillin, 0.1 mg ml^−1 streptomycin (Sigma-Aldrich), 2 mM L-glutamine (Sigma-Aldrich), and 10% FBS (Sigma-Aldrich) in a humidified atmosphere containing 5% CO2 at 37 °C. HEK293S GnTI^− cells (ATCC CRL-3022) were maintained in HyClone HyCell TransFx-H medium (GE Healthcare) supplemented with 10 U ml^−1 penicillin, 0.1 mg ml^−1 streptomycin, 4 mM L-glutamine, 0.15% poloxamer 188 (Sigma-Aldrich), and 1% FBS in an atmosphere containing 5% CO2 at 185 rpm at 37 °C. The ac splice variant of mouse TMEM16A (UniProt ID: Q8BHY3), mouse TMEM16B (UniProt ID: Q8CFW1), or mouse TMEM16F (UniProt ID: Q6P9J9) bearing a 3C cleavage site, a Venus YFP, a Myc tag, and a Streptavidin-binding peptide (SBP) downstream of the open reading frame in a modified pcDNA3.1 vector (Invitrogen) were used as described previously[21],[31]. Mutations were introduced using a modified QuikChange method[58] and were verified by sequencing.
# HEK293T cells were transfected with 3–4 μg DNA per 6 cm Petri dish using the calcium phosphate co-precipitation method and were used within 24–96 h after transfection. Recordings were performed on inside-out patches excised from HEK293T cells expressing the construct of interest. Patch pipettes were pulled from borosilicate glass capillaries (O.D. 1.5 mm, I.D. 0.86 mm, Sutter Instrument) and were fire-polished with a microforge (Narishige) before use. Pipette resistance was typically 3–8 MΩ when filled with the recording solutions detailed below. Seal resistance was typically 4 GΩ or higher. Voltage-clamp recordings were made using Axopatch 200B, Digidata 1550, and Clampex 10.7 (Molecular Devices). Analog signals were filtered with the in-built 4-pole Bessel filter at 10 kHz and were digitized at 20 kHz. Solution exchange was achieved using a gravity-fed system through a theta glass pipette mounted on an ultra-fast piezo-driven stepper (Siskiyou). […] All recordings were performed at 20 °C.
# A symmetrical ionic condition was used throughout. Stock solution with Ca^2+-EGTA contained 150 mM NaCl, 5.99 mM Ca(OH)2, 5 mM EGTA, and 10 mM HEPES at pH 7.40. Stock solution with EGTA contained 150 mM NaCl, 5 mM EGTA, and 10 mM HEPES at pH 7.40. Free Ca^2+ concentrations were adjusted by mixing the stock solutions at the required ratios calculated using the WEBMAXC program (http://web.stanford.edu/~cpatton/webmaxcS.htm). Patch pipettes were filled with the stock solution with Ca^2+-EGTA, which has a free Ca^2+ concentration of 1 mM. 1PBC (ChemBridge) stock was reconstituted in anhydrous DMSO (Sigma-Aldrich) at 100 mM and stored at −20 °C. Working solutions with 1PBC were prepared by serial dilution. Unless otherwise stated, experiments were performed at a saturating Ca^2+ concentration as shown in Supplementary Table 1 and the primary data were corrected for current rundown as described previously[21],[25].
# Concentration-response relations, obtained from the ratio of the I-V plots before and after the application of the blocker, were fitted to the Hill equation,1 I/Imax=1/1+IC50/[blocker]^h where I/Imax is the normalized current responses, IC50 defines the concentration at which inhibition is at its half-maximum, and h is the Hill coefficient.
smiles,measurement,setting,value
N#Cc1c(C(F)(F)F)cc(O)n2c1nc1ccccc12 [1PBC],IC50,"0 mV, 2 µM Ca2+",22.8 µM
same,remaining activity at 10 µM,0 mV,71.6%
same,remaining activity at 10 µM,20 mV,67.7%
same,remaining activity at 10 µM,40 mV,65.8%
same,remaining activity at 10 µM,60 mV,59.8%
same,remaining activity at 10 µM,80 mV,58.2%
same,remaining activity at 10 µM,100 mV,57.1%
same,remaining activity at 10 µM,120 mV,53.3%
same,remaining activity at 10 µM,140 mV,53.7%
same,remaining activity at 10 µM,-20 mV,75.5%
same,remaining activity at 10 µM,-40 mV,78.8%
same,remaining activity at 10 µM,-60 mV,81.3%
same,remaining activity at 10 µM,-80 mV,82.9%
same,remaining activity at 10 µM,-100 mV,85.5%
same,remaining activity at 10 µM,-120 mV,87.1%
same,remaining activity at 10 µM,-140 mV,86.2%
same,remaining activity at 30 µM,0 mV,41%
same,remaining activity at 30 µM,20 mV,37.8%
same,remaining activity at 30 µM,40 mV,34.4%
same,remaining activity at 30 µM,60 mV,31.9%
same,remaining activity at 30 µM,80 mV,28.9%
same,remaining activity at 30 µM,100 mV,27.6%
same,remaining activity at 30 µM,120 mV,26.5%
same,remaining activity at 30 µM,140 mV,26.4%
same,remaining activity at 30 µM,-20 mV,44.3%
same,remaining activity at 30 µM,-40 mV,50%
same,remaining activity at 30 µM,-60 mV,56.5%
same,remaining activity at 30 µM,-80 mV,60.4%
same,remaining activity at 30 µM,-100 mV,64.5%
same,remaining activity at 30 µM,-120 mV,67.9%
same,remaining activity at 30 µM,-140 mV,70.2%
same,remaining activity at 100 µM,0 mV,19.2%
same,remaining activity at 100 µM,20 mV,15.9%
same,remaining activity at 100 µM,40 mV,14.2%
same,remaining activity at 100 µM,60 mV,13.7%
same,remaining activity at 100 µM,80 mV,12.7%
same,remaining activity at 100 µM,100 mV,11.3%
same,remaining activity at 100 µM,120 mV,11.7%
same,remaining activity at 100 µM,140 mV,12.2%
same,remaining activity at 100 µM,-20 mV,22.6%
same,remaining activity at 100 µM,-40 mV,25.4%
same,remaining activity at 100 µM,-60 mV,29.3%
same,remaining activity at 100 µM,-80 mV,32.8%
same,remaining activity at 100 µM,-100 mV,38%
same,remaining activity at 100 µM,-120 mV,42.9%
same,remaining activity at 100 µM,-140 mV,48.1%
same,IC50,"20 mV, 2 µM Ca2+",19.4 µM
same,IC50,"40 mV, 2 µM Ca2+",17.3 µM
same,IC50,"60 mV, 2 µM Ca2+",14.6 µM
same,log-fold IC50 (change of mutant vs WT),80 mV,0.6902
same,IC50,"80 mV, 2 µM Ca2+",13.3 µM
same,IC50,"100 mV, 2 µM Ca2+",12.5 µM
same,IC50,"120 mV, 2 µM Ca2+",11.3 µM
same,IC50,"140 mV, 2 µM Ca2+",11.5 µM
same,IC50,"-20 mV, 2 µM Ca2+",26.9 µM
same,IC50,"-40 mV, 2 µM Ca2+",32.7 µM
same,IC50,"-60 mV, 2 µM Ca2+",40.6 µM
same,IC50,"-80 mV, 2 µM Ca2+",47.4 µM
same,IC50,"-100 mV, 2 µM Ca2+",58 µM
same,IC50,"-120 mV, 2 µM Ca2+",69.6 µM
same,IC50,"-140 mV, 2 µM Ca2+",81 µM
same,IC50,"Y514A, V 0 mV",22.8 µM
same,IC50,"Y514A, V 20 mV",19.4 µM
same,IC50,"Y514A, V 40 mV",17.3 µM
same,IC50,"Y514A, V 60 mV",14.6 µM
same,IC50,"Y514A, V 80 mV",13.3 µM
same,IC50,"Y514A, V 100 mV",12.5 µM
same,IC50,"Y514A, V 120 mV",11.3 µM
same,IC50,"Y514A, V 140 mV",11.5 µM
same,IC50,"Y514A, V -20 mV",26.9 µM
same,IC50,"Y514A, V -40 mV",32.7 µM
same,IC50,"Y514A, V -60 mV",40.6 µM
same,IC50,"Y514A, V -80 mV",47.4 µM
same,IC50,"Y514A, V -100 mV",58 µM
same,IC50,"Y514A, V -120 mV",69.6 µM
same,IC50,"Y514A, V -140 mV",81 µM

# Reference: PMC9120017, “Inhibition mechanism of the chloride channel TMEM16A by the pore blocker 1PBC” (Nature Communications, 2022)
